Common to all, as to assay type: in vivo
For test [1], the system named is Amaranthus retroflexus (AMARE). As to the kind of experiment: Post-emergence biological efficacy, glasshouse pot test. To be noted: 312 h, 1,000 g/ha, post-emergence (sprayed after 8 days), evaluated after 13 days, 100=total damage, 0=no damage, read-out: Percentage damage caused to weed species, post-emergence, AMARE. The method, then:
(§1) Seeds of Alopecurus myosuroides (ALOMY), Setaria faberi (SETFA), Echinochloa crus-galli (ECHCG), Solanum nigrum (SOLNI), Amaranthus retroflexus (AMARE) and Ipomoea hederaceae (IPOHE) were sown in standard soil in pots. After cultivation for 8 days under controlled conditions in a glasshouse (at 24/16° C., day/night; 14 hours light; 65% humidity), the plants were sprayed with an aqueous spray solution derived from the formulation of the technical active ingredient in acetone/water (50:50) solution containing 0.5% Tween 20 (polyoxyethylene sorbitan monolaurate, CAS RN 9005-64-5) to give a final dose of 1000 g/ha of test compound.
(§2) The test plants were then grown on under controlled conditions in a glasshouse (at 24/16° C., day/night; 14 hours light; 65% humidity) and watered twice daily. After 13 days the test was evaluated (100=total damage to plant; 0=no damage to plant).

Test [2] relates to Setaria faberi (SETFA). Described as above. To be noted: 312 h, 1,000 g/ha, post-emergence (sprayed after 8 days), evaluated after 13 days, 100=total damage, 0=no damage, read-out: Percentage damage caused to weed species, post-emergence, SETFA. The method, then: as §1, §2
Test [3] has as its system Solanum nigrum (SOLNI). Described as above. To be noted: 312 h, 1,000 g/ha, post-emergence (sprayed after 8 days), evaluated after 13 days, 100=total damage, 0=no damage, read-out: Percentage damage caused to weed species, post-emergence, SOLNI. The method, then:
as §1, §2

For test [4], the system named is Alopecurus myosuroides (ALOMY). Described as above. To be noted: 312 h, 1,000 g/ha, post-emergence (sprayed after 8 days), evaluated after 13 days, 100=total damage, 0=no damage, read-out: Percentage damage caused to weed species, post-emergence, ALOMY. The method, then: as §1, §2
The test system of test [5] is Ipomoea hederaceae (IPOHE). The test is described as above. The following applies: 312 h, 1,000 g/ha, post-emergence (sprayed after 8 days), evaluated after 13 days, 100=total damage, 0=no damage, read-out: Percentage damage caused to weed species, post-emergence, IPOHE. The method, then: as §1, §2
The subject of test [6] is Echinochloa crus-galli (ECHCG). The test is described as above. To be noted: 312 h, 1,000 g/ha, post-emergence (sprayed after 8 days), evaluated after 13 days, 100=total damage, 0=no damage, read-out: Percentage damage caused to weed species, post-emergence, ECHCG. The method, then: as §1, §2
Test [7] deals with Amaranthus retroflexus (AMARE). As to the kind of experiment: Pre-emergence biological efficacy, glasshouse pot test. The following applies: 312 h, 1,000 g/ha, evaluated after 13 days, 100=total damage, 0=no damage, read-out: Percentage damage caused to weed species, pre-emergence, AMARE. The method, then: as §1, with “one day” for “8 days”
(§3) The test plants were then grown under controlled conditions in the glasshouse (at 24/16° C., day/night; 14 hours light; 65% humidity) and watered twice daily. After 13 days the test was evaluated (100=total damage to plant; 0=no damage to plant).

The subject of test [8] is Setaria faberi (SETFA). The description is as above. To be noted: 312 h, 1,000 g/ha, evaluated after 13 days, 100=total damage, 0=no damage, read-out: Percentage damage caused to weed species, pre-emergence, SETFA. The method, then:
as §1, with “one day” for “8 days”
as §3

In test [9] the test system is Solanum nigrum (SOLNI). The description is as above. To be noted: 312 h, 1,000 g/ha, evaluated after 13 days, 100=total damage, 0=no damage, read-out: Percentage damage caused to weed species, pre-emergence, SOLNI. The method, then:
as §1, with “one day” for “8 days”
as §3

The test system of test [10] is Alopecurus myosuroides (ALOMY). The description is as above. The following applies: 312 h, 1,000 g/ha, evaluated after 13 days, 100=total damage, 0=no damage, read-out: Percentage damage caused to weed species, pre-emergence, ALOMY. The method, then: as §1, with “one day” for “8 days”
as §3

Test [11] concerns Ipomoea hederaceae (IPOHE). The description is as above. The following applies: 312 h, 1,000 g/ha, evaluated after 13 days, 100=total damage, 0=no damage, read-out: Percentage damage caused to weed species, pre-emergence, IPOHE. The method, then: as §1, with “one day” for “8 days”
as §3

For test [12], the system named is Echinochloa crus-galli (ECHCG). Described as above. To be noted: 312 h, 1,000 g/ha, evaluated after 13 days, 100=total damage, 0=no damage, read-out: Percentage damage caused to weed species, pre-emergence, ECHCG. The method, then:
as §1, with “one day” for “8 days”
as §3

Consider `C=Cc1c(C(=O)OC)nc(Cl)c(F)c1N` [Compound 2-12, 4-amino-6-chloro-3-ethenyl-5-fluoro-pyridine-2-carboxylic acid methyl ester], for which the pest or weed control at 1000 g/ha in test [1] was found to be 100%; with Setaria faberi (SETFA) [2] it was 90%; in the test with Solanum nigrum (SOLNI) [3] it was 100%; in [4], 80%; in test [5], 80%; in [6] it was 80%. The pest or weed control at 1000 g/ha in [7] amounted to 100%; in the test with Setaria faberi (SETFA) [8] it was 90%; with Solanum nigrum (SOLNI) [9], 100%; in test [10], 100%; in test [11] it was 100%; in [12], 100%.
With `C=Cc1c(C(=O)OC)nc(Cl)c(Cl)c1N` [Compound 2-20, 4-amino-5,6-dichloro-3-ethenyl-1-pyridine-2-carboxylic acid methyl ester], the pest or weed control at 1000 g/ha in [1] worked out at 100%; in the test with Setaria faberi (SETFA) [2] it was 90%; in the test with Solanum nigrum (SOLNI) [3], 100%; in [4], 90%; in test [5], 100%; in test [6], 90%. Moreover, the pest or weed control at 1000 g/ha in test [7] was 100%; with Setaria faberi (SETFA) [8] it was 90%; in the test with Solanum nigrum (SOLNI) [9], 100%; in test [10] it was 90%; in [11], 100%; in [12] it was 90%.
As to `COC(=O)c1nc(Cl)cc(N)c1C=C(C)C` [Compound 2-165, 4-Amino-6-chloro-3-(2-methylprop-1-enyl)-pyridine-2-carboxylic acid methyl ester], the pest or weed control at 1000 g/ha worked out at 100% in test [1]; 90% in the test with Setaria faberi (SETFA) [2]; 90% in the test on Solanum nigrum (SOLNI) [3]; 70% in test [4]; 70% in [5]; 70% in test [6]. Also, the pest or weed control at 1000 g/ha in [7] was 100%; in the test on Setaria faberi (SETFA) [8] it was 90%; in the test with Solanum nigrum (SOLNI) [9], 100%; in [10], 80%; in test [11] it was 90%; in test [12], 70%.
For `COC(=O)c1nc(Cl)cc(N)c1-c1ccc(Cl)cc1` [Compound 2-168, 4-Amino-6-chloro-3-(4-chlorophenyl)-pyridine-2-carboxylic acid methyl ester], the pest or weed control at 1000 g/ha in test [1] was found to be 100%; with Setaria faberi (SETFA) [2], 20%; with Solanum nigrum (SOLNI) [3], 80%; in test [4] it was 20%; in test [5], 70%; in test [6], 10%. In addition, the pest or weed control at 1000 g/ha in [7] is 90%; in the test on Setaria faberi (SETFA) [8], 0%; with Solanum nigrum (SOLNI) [9] it was 80%; in test [10], 30%; in [11] it was 80%; in test [12] it was 20%.
With `C=Cc1c(NCC(C)O)cc(Cl)nc1C(=O)OC` (stereo not drawn) [Compound 21-4, 6-Chloro-3-ethenyl-4-(2-hydroxypropylamino)-pyridine-2-carboxylic acid methyl ester], the pest or weed control at 1000 g/ha in [1] came to 100%; in the test on Setaria faberi (SETFA) [2] it was 80%; with Solanum nigrum (SOLNI) [3], 100%; in [4] it was 70%; in test [5], 50%; in test [6], 80%. In addition, the pest or weed control at 1000 g/ha was 100% in test [7]; 90% in the test with Setaria faberi (SETFA) [8]; 100% with Solanum nigrum (SOLNI) [9]; 90% in test [10]; 80% in test [11]; 90% in test [12].
Turning to `C=Cc1c(NC2CC2)cc(Cl)nc1C(=O)OC` [Compound 23-4, 6-Chloro-4-cyclopropylamino-3-ethenyl-pyridine-2-carboxylic acid methyl ester], the pest or weed control at 1000 g/ha in [1] came to 100%; with Setaria faberi (SETFA) [2] it was 80%; in the test with Solanum nigrum (SOLNI) [3] it was 100%; in test [4], 60%; in [5] it was 70%; in test [6] it was 30%. For the same compound, the pest or weed control at 1000 g/ha was 100% in test [7]; 80% in the test on Setaria faberi (SETFA) [8]; 100% with Solanum nigrum (SOLNI) [9]; 70% in test [10]; 80% in test [11]; 70% in [12].
As to `C=Cc1c(NC2CCCC2)cc(Cl)nc1C(=O)OC` [Compound 27-4, 6-Chloro-4-cyclopentylamino-3-ethenyl-pyridine-2-carboxylic acid methyl ester], the pest or weed control at 1000 g/ha in [1] is 100%; in the test with Setaria faberi (SETFA) [2] it was 70%; in the test on Solanum nigrum (SOLNI) [3] it was 80%; in test [4] it was 10%; in test [5], 60%; in test [6] it was 10%. Moreover, the pest or weed control at 1000 g/ha in test [7] came to 100%; in the test with Setaria faberi (SETFA) [8], 70%; in the test on Solanum nigrum (SOLNI) [9], 100%; in [10], 50%; in [11], 50%; in test [12], 10%.
On to `C=Cc1c(N2CCCC2)cc(Cl)nc1C(=O)OC` [Compound 31-4, 6-Chloro-3-ethenyl-4-pyrrolidin-1-yl-pyridine-2-carboxylic acid methyl ester], for which the pest or weed control at 1000 g/ha in test [1] was found to be 90%; with Setaria faberi (SETFA) [2], 50%; in the test on Solanum nigrum (SOLNI) [3], 90%; in test [4], 20%; in [5], 70%; in [6], 20%. The pest or weed control at 1000 g/ha is 100% in test [7]; 50% in the test on Setaria faberi (SETFA) [8]; 90% in the test with Solanum nigrum (SOLNI) [9]; 60% in test [10]; 80% in [11]; 10% in test [12].

(Values after US20130065757A1, “CHEMICAL COMPOUNDS” (Syngenta Limited, priority 2010, published 2013).)
